Laboratory results from ChEMBL document CHEMBL3045439, “Isoforms of the heteropteran Nezara viridula ecdysone receptor: protein characterisation, RH5992 insecticide binding and homology modelling” (Pest Manag Sci, 2011).

Tests used:
Assay type in all cases: protein-complex assay
Ecdysone receptor [1] = molecular target: T1, Ecdysone receptor (Nezara viridula, UniProt E5L6Y0+E5L6Y1); test: Displacement of [3H]PonA from recombinant Nezara viridula EcR10
T1 sequence (E5L6Y1 whole entry): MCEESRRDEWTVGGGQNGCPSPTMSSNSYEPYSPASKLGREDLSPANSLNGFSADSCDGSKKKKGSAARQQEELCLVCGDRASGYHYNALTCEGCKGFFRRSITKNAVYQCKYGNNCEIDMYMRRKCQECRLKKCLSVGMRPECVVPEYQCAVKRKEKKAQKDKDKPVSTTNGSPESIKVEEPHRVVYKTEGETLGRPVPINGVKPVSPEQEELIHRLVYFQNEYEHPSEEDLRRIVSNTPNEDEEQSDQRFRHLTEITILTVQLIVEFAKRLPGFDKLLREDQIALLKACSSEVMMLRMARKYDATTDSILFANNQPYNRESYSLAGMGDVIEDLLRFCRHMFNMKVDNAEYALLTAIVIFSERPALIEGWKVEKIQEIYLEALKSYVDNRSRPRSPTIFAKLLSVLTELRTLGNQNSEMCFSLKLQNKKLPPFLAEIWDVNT
T1 sequence (E5L6Y0 whole entry): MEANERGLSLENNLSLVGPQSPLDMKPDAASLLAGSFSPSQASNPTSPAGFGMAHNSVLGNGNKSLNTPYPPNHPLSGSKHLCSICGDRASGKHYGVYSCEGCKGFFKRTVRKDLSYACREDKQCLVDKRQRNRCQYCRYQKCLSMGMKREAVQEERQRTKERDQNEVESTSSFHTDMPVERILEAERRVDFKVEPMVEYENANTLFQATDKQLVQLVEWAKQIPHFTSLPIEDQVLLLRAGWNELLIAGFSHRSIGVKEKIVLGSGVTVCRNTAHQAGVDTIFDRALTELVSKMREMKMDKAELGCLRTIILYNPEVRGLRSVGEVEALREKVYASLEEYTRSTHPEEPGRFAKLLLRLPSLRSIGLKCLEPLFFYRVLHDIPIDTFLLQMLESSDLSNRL

Ecdysone receptor [2] = molecular target: T1, Ecdysone receptor; test: Displacement of [3H]PonA from recombinant Nezara viridula EcR11
Ecdysone receptor [3] = molecular target: T2, Ecdysone receptor (Locusta migratoria, UniProt O97095+Q6V7U7); test: Binding affinity to Locusta migratoria ecdysone receptor (EcR)
T2 sequence (O97095 whole entry): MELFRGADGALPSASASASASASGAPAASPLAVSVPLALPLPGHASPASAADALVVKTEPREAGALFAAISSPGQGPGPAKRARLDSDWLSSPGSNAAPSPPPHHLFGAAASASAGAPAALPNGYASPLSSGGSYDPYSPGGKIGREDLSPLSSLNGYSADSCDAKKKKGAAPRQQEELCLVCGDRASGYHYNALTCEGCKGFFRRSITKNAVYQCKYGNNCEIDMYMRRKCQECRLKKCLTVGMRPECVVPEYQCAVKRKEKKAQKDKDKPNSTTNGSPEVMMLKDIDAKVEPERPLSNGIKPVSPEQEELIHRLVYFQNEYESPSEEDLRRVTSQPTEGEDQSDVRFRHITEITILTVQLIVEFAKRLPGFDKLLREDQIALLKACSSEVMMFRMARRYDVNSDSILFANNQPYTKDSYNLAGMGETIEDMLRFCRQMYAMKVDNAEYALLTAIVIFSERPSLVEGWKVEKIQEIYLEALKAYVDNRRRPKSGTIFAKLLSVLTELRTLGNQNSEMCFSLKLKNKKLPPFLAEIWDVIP
T2 sequence (Q6V7U7 whole entry): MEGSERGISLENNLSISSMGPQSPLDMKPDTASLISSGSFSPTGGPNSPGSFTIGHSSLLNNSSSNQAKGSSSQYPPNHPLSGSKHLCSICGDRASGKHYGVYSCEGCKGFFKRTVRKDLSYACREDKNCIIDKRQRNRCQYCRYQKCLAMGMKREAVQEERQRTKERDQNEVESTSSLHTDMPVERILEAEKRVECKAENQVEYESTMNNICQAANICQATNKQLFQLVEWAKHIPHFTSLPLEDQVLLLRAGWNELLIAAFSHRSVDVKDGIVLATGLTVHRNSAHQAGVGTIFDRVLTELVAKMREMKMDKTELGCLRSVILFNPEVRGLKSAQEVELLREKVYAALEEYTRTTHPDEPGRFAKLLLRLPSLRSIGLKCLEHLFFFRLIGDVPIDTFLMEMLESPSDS

Ecdysone receptor [4] = molecular target: T3, Ecdysone receptor (Aedes aegypti, UniProt P49880+Q9GSG8); test: Binding affinity to Aedes aegypti EcR
T3 sequence (P49880 whole entry): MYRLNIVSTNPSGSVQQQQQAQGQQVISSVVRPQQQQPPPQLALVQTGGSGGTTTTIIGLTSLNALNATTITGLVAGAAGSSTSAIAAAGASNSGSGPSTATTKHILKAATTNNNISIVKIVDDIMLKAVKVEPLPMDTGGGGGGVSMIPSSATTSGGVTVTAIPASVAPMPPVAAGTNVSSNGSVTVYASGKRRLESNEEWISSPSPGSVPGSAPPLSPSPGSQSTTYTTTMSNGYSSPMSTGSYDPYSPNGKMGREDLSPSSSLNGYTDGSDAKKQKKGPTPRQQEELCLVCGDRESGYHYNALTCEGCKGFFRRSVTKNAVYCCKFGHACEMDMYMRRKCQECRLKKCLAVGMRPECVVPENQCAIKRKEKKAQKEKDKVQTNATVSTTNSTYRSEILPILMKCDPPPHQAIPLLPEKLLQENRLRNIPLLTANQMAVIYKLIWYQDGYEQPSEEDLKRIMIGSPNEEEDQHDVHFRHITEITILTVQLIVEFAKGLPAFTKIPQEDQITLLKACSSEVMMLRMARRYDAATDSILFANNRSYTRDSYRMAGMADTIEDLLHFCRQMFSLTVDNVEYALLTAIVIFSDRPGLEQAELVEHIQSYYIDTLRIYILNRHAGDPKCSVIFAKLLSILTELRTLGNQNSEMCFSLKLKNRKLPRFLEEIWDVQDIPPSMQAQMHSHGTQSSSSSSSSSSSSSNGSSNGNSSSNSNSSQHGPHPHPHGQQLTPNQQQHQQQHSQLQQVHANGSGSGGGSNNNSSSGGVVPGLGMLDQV
T3 sequence (Q9GSG8 whole entry): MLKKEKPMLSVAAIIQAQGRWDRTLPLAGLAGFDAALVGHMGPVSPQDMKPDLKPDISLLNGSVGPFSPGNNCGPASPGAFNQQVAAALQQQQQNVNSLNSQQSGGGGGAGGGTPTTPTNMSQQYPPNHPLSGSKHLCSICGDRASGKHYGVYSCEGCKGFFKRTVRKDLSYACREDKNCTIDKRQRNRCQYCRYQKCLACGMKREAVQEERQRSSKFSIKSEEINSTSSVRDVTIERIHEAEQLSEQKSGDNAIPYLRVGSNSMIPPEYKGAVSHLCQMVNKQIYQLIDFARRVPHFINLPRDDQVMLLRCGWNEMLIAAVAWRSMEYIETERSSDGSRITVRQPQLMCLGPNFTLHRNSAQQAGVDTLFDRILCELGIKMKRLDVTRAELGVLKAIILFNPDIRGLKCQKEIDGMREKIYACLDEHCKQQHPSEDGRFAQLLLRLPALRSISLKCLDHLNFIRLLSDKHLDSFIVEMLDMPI

| SMILES | IC50 (Ecdysone receptor [1]) [µM] | Ki (Ecdysone receptor [1]) [µM] | IC50 (Ecdysone receptor [2]) [µM] | Ki (Ecdysone receptor [2]) [µM] | Ki (Ecdysone receptor [3]) [µM] | Ki (Ecdysone receptor [4]) [µM] |
| --- | --- | --- | --- | --- | --- | --- |
| CC(C)(O)CC[C@@H](O)[C@](C)(O)[C@H]1CC[C@@]2(O)C3=CC(=O)[C@@H]4C[C@@H](O)[C@@H](O)C[C@]4(C)[C@H]3CC[C@]12C [20-HYDROXYECDYSONE] | 3 | 2.5 | 4.5 | 3 | – | – |
| CCc1ccc(C(=O)NN(C(=O)c2cc(C)cc(C)c2)C(C)(C)C)cc1 [TEBUFENOZIDE] | 20 | 16.8 | 28 | 23.9 | 100 | 0.0251 |
